Assay results as given in ChEMBL document CHEMBL1146723, “Synthesis of benzophenone oxime analogues as inhibitor of secretory phospholipase A(2) with anti-inflammatory activity” (2004).
Several values for one entry are separate records, joined by “and”; a condition that tells them apart may be missing. Equal entries are not always repeated. Activity calls are given as the source filed them. The calls are words filed in the database; no cut-off is given here.

What was measured:
Mus musculus = assay: Antiinflammatory activity was evaluated for the increase in weight due to edema was calculated as edema ratio; type: functional
Trimeresurus malabaricus [1] = assay: Percentage inhibitory activity against Phospholipase A2 isolated from venom of Trimeresurus malabaricus; NI = No inhibition
Daboia russellii = assay: (§1) Percentage inhibitory activity against Phospholipase A2 isolated from venom of Vipera russelli; settings: concentration not given here
Naja naja = assay: (§2) Percentage inhibitory activity against Phospholipase A2 isolated from venom of Naja naja; settings: concentration not given here
[2] = molecular target: Phospholipase A2, major isoenzyme (Sus scrofa) (UniProt P00592); assay: (§3) Percentage inhibitory activity against Phospholipase A2 isolated from venom of Trimeresurus malabaricus; settings: concentration not given here
[3] = molecular target: Phospholipase A2, major isoenzyme (Sus scrofa) (UniProt P00592); assay: as §1; settings: Daboia russellii; concentration not given here
[4] = molecular target: Phospholipase A2, major isoenzyme (Sus scrofa) (UniProt P00592); assay: as §2; settings: concentration not given here
Trimeresurus malabaricus [5] = assay: as §3; settings: concentration not given here

Sequence of Phospholipase A2, major isoenzyme (Sus scrofa) (P00592 23-146 limits assumed): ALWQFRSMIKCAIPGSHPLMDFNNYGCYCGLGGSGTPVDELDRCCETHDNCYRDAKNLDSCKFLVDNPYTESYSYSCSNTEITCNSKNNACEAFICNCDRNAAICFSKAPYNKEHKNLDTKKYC

Structure (SMILES) | Edema ratio (Mus musculus) | inhibition (Trimeresurus malabaricus [1]) | inhibition (Daboia russellii) | inhibition (Naja naja) | inhibition [2] | inhibition [3] | inhibition [4] | inhibition (Trimeresurus malabaricus [5])
COc1ccc(/C(=N/O)c2ccccc2)cc1 | 180 and 142 and 183 and 147 and 151 | inactive | 29.9% | 42.4% |  |  |  | 
COc1ccc(/C(=N/O)c2cccc(Cl)c2)cc1OC | 101 and 109 and 105 and 106 and 107 |  |  |  | 72.4% | 85.3% | 90.2% | 
COc1cccc(C(=NO)c2cccc(OC)c2)c1 | 136 and 142 and 181 and 147 and 149 | inactive | 58.7% | 36.9% |  |  |  | 
Cc1cccc(/C(=N/O)c2ccccc2)c1 | 102 and 110 and 101 and 103 and 109 |  | 79.2% | 82.9% |  |  |  | 81.6%
